Assay results: EP4782440A9, “PSMA COMPOUND, AND PHARMACEUTICAL COMPOSITION CONTAINING SAME AND USE THEREOF” (VITSGEN THERAPEUTICS INC., priority 2023, dated 2025)

Test system: LnCaP cells
Assay: LnCaP cell uptake and internalization
Type: cell-based
Conditions: Table 4, 177Lu-labelled, 37 °C, 45 min
From the text: Table 4. Conditions and results of LnCaP cell uptake
wherein [formula] Table 5. Detailed results of LnCaP cell uptake

For `O=C(O)CC[C@H](NC(=O)N[C@@H](CCCCNC(=O)[C@H](Cc1ccc2ccccc2c1)NC(=O)[C@H]1CC[C@H](CNC(=O)CN2CCN(CC(=O)O)CCN(CC(=O)O)CCN(CC(=O)O)CC2)CC1)C(=O)O)C(=O)O` [VWT001500, PSMA-617], the “Cellular uptake results, internalization rate%” value was 9.57% and the “Cellular uptake results, uptake rate%” value was 1.01%.
